{
  "source": "patent US12201618B2",
  "about": "(Biohaven Therapeutics Ltd., priority 2018, dated 2025)",
  "key": {"[1]": {"settings": "taken with meals; cited from earlier work"}, "[2]": {"test_system": "patients diagnosed with Alzheimer's disease of mild-to-moderate severity", "assay": "T2 Protect AD Phase 2/3 trial: volumetric hippocampal MRI", "format": "in vivo, human", "settings": "for Hippocampal Volume Change Week 48 Model Estimates LSMean (SE) Difference: Week 48, placebo vs troriluzole", "text": "vMRI allows the in vivo assessment of brain structure volume and provides a measure of atrophy rate. […] Atrophy of the medial temporal lobe, including hippocampus and entorhinal cortex, has long been described in vMRI studies of AD. Hippocampal volume derived from MRI correlates with histological hippocampal volume and degree of neuronal loss and AD pathology, and entorhinal cortical thickness change appears to be an early and sensitive indicator of neurodegeneration associated with AD (Holland et al., 2009; Jack et al., 2004).\nParticipants will undergo vMRI scans of the brain at screening, week 24 and week 48 in order to assess for changes in brain volumes that may be associated with clinical change due to treatment with BHV-4157.\nVolumetric MRI scans will use the same imaging protocol, which will include a localizer scan, a 3D T1weighted sagittal acquisition (MPRAGE or IR-SPGR), a T2-weighted FLAIR axial acquisition, a T2* gradient recalled echo axial acquisition for magnetic susceptibility, and a diffusion weighted axial acquisition to assess for restricted diffusion.\nImages will be checked for image quality and adherence to scanning protocols. 3D T1-weighted datasets passing quality checks will be corrected for spatial distortion and for intensity variation. Screening and follow-up datasets for each participant will be spatially registered to one another using rigid-body registration followed by nonlinear registration and neuroanatomic parcellation to quantify whole-brain and subregional volumetric change on a patient-by patient basis.\nWhole brain volume (WBV, excluding cerebellum), bilateral ventricular volume and bilateral hippocampal volume will be measured. Quantitative anatomical regional change (Quarc) will be used as the computational MR image processing application. Detail for the statistical computations is given in the Statistical Analytical Plan (SAP).\n(§1) The T2 Protect AD trial has been conducted, which is a Phase 2/3, randomized, double-blind, placebo-controlled study evaluating the efficacy and safety of troriluzole in patients diagnosed with Alzheimer's disease of mild-to-moderate severity (Mini-Mental State Examination [MMSE] scores of 14-24; mild: 20-24, moderate: 14-19)."}, "[3]": {"test_system": "patients diagnosed with Alzheimer's disease of mild-to-moderate severity", "assay": "T2 Protect AD Phase 2/3 trial: CDR-Sum of Boxes", "format": "in vivo, human", "settings": "for CDR01-Sum of Boxes Week 48 Model Estimates LSMean (SE): Week 48, change from baseline; for CDR01-Sum of Boxes Week 48 Model Estimates LSMean (SE) Difference: Week 48, placebo vs troriluzole", "text": "The CDR-SOB (Hughes, Berg, Danziger, Coben, & Martin, 1982) is a validated composite rating of cognition and everyday functioning used in longitudinal AD research which incorporates both informant input and direct assessment of performance. It assesses through semi structured interview 3 cognitive domains including memory, orientation, and judgement/problem solving and 3 everyday functional domains including community affairs, home and hobbies and personal care. There are 5 levels of impairment from none CDR=0 to severe CDR=3. The individual domain scores are added to create a sum of the box scores.\nas §1"}, "[4]": {"test_system": "patients diagnosed with Alzheimer's disease of mild-to-moderate severity", "assay": "T2 Protect AD Phase 2/3 trial: neuropsychiatric inventory (NPI)", "format": "in vivo, human", "settings": "after 48 weeks", "text": "The NPI is a well-validated, reliable, multi-item instrument to assess psychopathology in AD dementia based on the results of an interview with the study partner (Cummings, 1997). The NPI evaluates both the frequency and severity of 10 neuropsychiatric features, including delusions, hallucinations, agitation/aggression, dysphoria, anxiety, euphoria, apathy, disinhibition, irritability and lability, and aberrant motor behavior, as well as evaluates sleep and appetite/eating disorders. Frequency assessments range from 1 (occasionally, less than once per week) to 4 (very frequently, once or more per day or continuously). Severity assessments range from 1 (mild) to 3 (severe). The score for each subscale is the product of severity and frequency and the total score is the sum of all subscales.\nas §1"}, "[5]": {"test_system": "patients diagnosed with Alzheimer's disease of mild-to-moderate severity", "assay": "T2 Protect AD Phase 2/3 trial: ADAS-Cog 11", "format": "in vivo, human", "settings": "for ADAS-Cog Total Score Week 48 Model Estimates LSMean (SE): Week 48, change from baseline; for ADAS-Cog Total Score Week 48 Model Estimates LSMean (SE) Difference: Week 48, placebo vs troriluzole", "text": "(§2) The ADAS-Cog 11 evaluates memory (word recall, word recognition), reasoning (following commands), language (naming, comprehension), orientation, ideational praxis (placing a letter in an envelope) and constructional praxis (copying geometric designs). Ratings of spoken language, language comprehension, word finding difficulty, and ability to remember test instructions are also obtained. The test is scored in terms of errors, with higher scores reflecting poorer performance and greater impairment. Scores can range from 0 (best) to 70 (worse).\nThe primary efficacy endpoint is the within-participant change in ADAS-Cog 11 from baseline to week 48, compared between the treatment group and the placebo group.\nas §2, with “11 (Rosen, Mohs, & Davis, 1984) is a structured scale that” for “11”\nas §1"}, "[6]": {"settings": "mild-to-moderate AD, all patients"}, "[7]": {"settings": "mild-to-moderate AD, all patients, Week 48"}},
  "data": [
    {"smiles": "Nc1nc2ccc(OC(F)(F)F)cc2s1", "note": "[Riluzole, 6-(trifluoromethoxy)benzothiazol-2-amine]", "values": [
      {"measurement": "food effect on exposure", "setting": "[1]", "value": "reduced exposure when taken with meals"}
    ]},
    {"smiles": "CN(CC(=O)Nc1nc2ccc(OC(F)(F)F)cc2s1)C(=O)CNC(=O)CN", "note": "[Troriluzole]", "values": [
      {"measurement": "Hippocampal Volume Change Week 48 Analysis Value Mean (SD)", "setting": "[2]; Mild AD Patients Only", "value": "−1.1 (1.61)"},
      {"measurement": "Hippocampal Volume Change Week 48 Analysis Value Median", "setting": "[2]; Mild AD Patients Only", "value": "−0.9"},
      {"measurement": "Hippocampal Volume Change Week 48 Model Estimates LSMean (SE)", "setting": "[2]; Mild AD Patients Only", "value": "−1.1 (0.27)"},
      {"measurement": "Hippocampal Volume Change Week 48 Model Estimates LSMean (SE) Difference", "setting": "[2]; Mild AD Patients Only", "value": "−0.5 (0.38)"},
      {"measurement": "hippocampal volume LS mean percent deformation change difference versus placebo", "setting": "[2]; mild AD, after 48 weeks, 95% CI: −1.2, 0.3, p-value=0.2240", "value": "−0.5", "unit": "%"},
      {"measurement": "LS mean percent deformation change from baseline hippocampal volume", "setting": "[2]; mild AD, after 48 weeks, n=48", "value": "−1.1", "unit": "%"},
      {"measurement": "Hippocampal Volume Change Week 48 Analysis Value Mean (SD)", "setting": "[2]; [6]", "value": "−1.1 (1.50)"},
      {"measurement": "Hippocampal Volume Change Week 48 Analysis Value Median", "setting": "[2]; [6]", "value": "−0.9"},
      {"measurement": "Hippocampal Volume Change Week 48 Model Estimates LSMean (SE)", "setting": "[2]; [6]", "value": "−1.1 (0.18)"},
      {"measurement": "Hippocampal Volume Change Week 48 Model Estimates LSMean (SE) Difference", "setting": "[2]; [6]", "value": "0.0 (0.26)"},
      {"measurement": "CDR01-Sum of Boxes Week 48 Analysis Value Mean (SD)", "setting": "[3]; Mild AD Patients Only", "value": "7.1 (2.79)"},
      {"measurement": "CDR01-Sum of Boxes Week 48 Analysis Value Median", "setting": "[3]; Mild AD Patients Only", "value": 6.5},
      {"measurement": "CDR01-Sum of Boxes Week 48 Change from Baseline Mean (SD)", "setting": "[3]; Mild AD Patients Only", "value": "1.4 (2.06)"},
      {"measurement": "CDR01-Sum of Boxes Week 48 Change from Baseline Median", "setting": "[3]; Mild AD Patients Only", "value": 1.0},
      {"measurement": "CDR01-Sum of Boxes Week 48 Model Estimates LSMean (SE)", "setting": "[3]; Mild AD Patients Only", "value": "1.7 (0.29)"},
      {"measurement": "CDR01-Sum of Boxes Week 48 Model Estimates LSMean (SE) Difference", "setting": "[3]; Mild AD Patients Only", "value": "−0.3 (0.40)"},
      {"measurement": "CDR01-Sum of Boxes Week 48 Analysis Value Mean (SD)", "setting": "[3]; [6]", "value": "8.3 (3.24)"},
      {"measurement": "CDR01-Sum of Boxes Week 48 Analysis Value Median", "setting": "[3]; [6]", "value": 8.0},
      {"measurement": "CDR01-Sum of Boxes Week 48 Change from Baseline Mean (SD)", "setting": "[3]; [6]", "value": "1.9 (2.37)"},
      {"measurement": "CDR01-Sum of Boxes Week 48 Change from Baseline Median", "setting": "[3]; [6]", "value": 2.0},
      {"measurement": "CDR01-Sum of Boxes Week 48 Model Estimates LSMean (SE)", "setting": "[3]; [6]", "value": "2.1 (0.21)"},
      {"measurement": "CDR01-Sum of Boxes Week 48 Model Estimates LSMean (SE) Difference", "setting": "[3]; [6]", "value": "−0.2 (0.28)"},
      {"measurement": "NPI score LS mean change difference versus placebo", "setting": "[4]; mild AD, 95% CI: −5.99, 1.78, p-value=0.286", "value": "−2.1"},
      {"measurement": "LS mean change from baseline on the NPI score", "setting": "[4]; mild AD, n=62", "value": 2.1, "unit": "points"},
      {"measurement": "NPI score LS mean change difference versus placebo", "setting": "[4]; mild-to-moderate AD, 95% CI: −4.08, 1.10, p-value=0.258", "value": "−1.5"},
      {"measurement": "LS mean change from baseline on the NPI score", "setting": "[4]; mild-to-moderate AD, n=120", "value": 2.3, "unit": "points"},
      {"measurement": "ADAS-Cog Total Score Week 48 Analysis Value Mean (SD)", "setting": "[5]; Mild AD Patients Only, Week 48", "value": "26.2 (8.22)"},
      {"measurement": "ADAS-Cog Total Score Week 48 Analysis Value Median", "setting": "[5]; Mild AD Patients Only, Week 48", "value": 26.0},
      {"measurement": "ADAS-Cog Total Score Week 48 Change from Baseline Mean (SD)", "setting": "[5]; Mild AD Patients Only, Week 48", "value": "3.9 (5.90)"},
      {"measurement": "ADAS-Cog Total Score Week 48 Change from Baseline Median", "setting": "[5]; Mild AD Patients Only, Week 48", "value": 4.0},
      {"measurement": "ADAS-Cog Total Score Week 48 Model Estimates LSMean (SE)", "setting": "[5]; Mild AD Patients Only", "value": "4.2 (0.76)"},
      {"measurement": "ADAS-Cog Total Score Week 48 Model Estimates LSMean (SE) Difference", "setting": "[5]; Mild AD Patients Only", "value": "0.7 (1.02)"},
      {"measurement": "ADAS-Cog11 score LS mean change difference versus placebo", "setting": "[5]; mild AD, after 48 weeks, 95% CI: −1.4, 2.7, p-value=0.5233", "value": 0.7},
      {"measurement": "LS mean change from baseline on the ADAS-Cog11 score", "setting": "[5]; mild AD, after 48 weeks, n=65", "value": 4.2, "unit": "points"},
      {"measurement": "ADAS-Cog Total Score Week 48 Analysis Value Median", "setting": "[5]; [7]", "value": 30.0},
      {"measurement": "ADAS-Cog Total Score Week 48 Change from Baseline Mean (SD)", "setting": "[5]; [7]", "value": "5.8 (7.40)"},
      {"measurement": "ADAS-Cog Total Score Week 48 Change from Baseline Median", "setting": "[5]; [7]", "value": 6.0},
      {"measurement": "ADAS-Cog Total Score Week 48 Analysis Value Mean (SD)", "setting": "[5]; mild-to-moderate AD, all patients, Week 48, 280 mg once daily", "value": "31.5 (10.82)"},
      {"measurement": "ADAS-Cog Total Score Week 48 Model Estimates LSMean (SE)", "setting": "[5]; [6]", "value": "6.7 (0.70)"},
      {"measurement": "ADAS-Cog Total Score Week 48 Model Estimates LSMean (SE) Difference", "setting": "[5]; [6]", "value": "0.0 (0.93)"}
    ]}
  ]
}
